Structures can show the parent of a compound that is named as a salt.
Assays:
Female CD1 mice = experiment: Effect on energy expenditure of mice (oxygen consumption, oral dosing); assay type: in vivo; details: p.o. in water, percentage of the rate of energy expenditure of the mice dosed with water, dose differs per compound (Dose mg/kg p.o.); for Mean Energy Expenditure (0-3h): 0-3h after dosing; for Mean Energy Expenditure (0-21h): 0-21h after dosing
Description: Female CD1 mice each weighing approximately 24 g were given food and water ad lib before and during the experiment. The compounds were dissolved in water and these solutions were administered orally to each of 12 mice. A further 12 mice were dosed orally with water. The mice were placed in groups of threes in boxes through which air was drawn and the oxygen content of the air leaving the boxes was measured. The energy expenditure of the mice was calculated for 3 and 21 hours after dosing from the volume of air leaving the boxes and its oxygen content, following the principles described by J.B. de V. Weir, J. Physiol. (London) 109, 1-9 (1949). The results are expressed as a percentage of the rate of energy expenditure of the mice dosed with water.

Male Sprague-Dawley rats = experiment: Effect on energy expenditure of rats (oxygen consumption, oral dosing); assay type: in vivo; details: deprived of food, p.o. in water, percentage of the rate of energy expenditure of the rats dosed with water, dose differs per compound (Dose mg/kg p.o.); for Mean Energy Expenditure (0-3h): 0-3h after dosing; for Mean Energy Expenditure (0-21h): 0-21h after dosing
Description: Male Sprague-Dawley rats each weighing between 170-200 g were deprived of food for 16 hours before, and during the experiment. Water was provided ad lib at all times. The compounds were administered orally in water to 3 or 4 rats. A further 4 rats were dosed orally with water. The rats were placed in boxes through which air was drawn and the oxygen content of the air leaving the boxes was measured. The energy expenditure of the rats was calculated for 3 hours and for 21 hours after dosing from the volume of air leaving the boxes and its oxygen content, following the principles described by J.B. de V. Weir, J. Physiol. (London) 109, 1-9 (1949). The results are expressed as a percentage of the rate of energy expenditure of the rats dosed with water.

Female CFLP mice = experiment: Hypoglycaemic activity: subcutaneous glucose load, area under blood glucose curve; assay type: in vivo; details: female CFLP mice fasted 24 hours; compound orally 30 minutes before glucose 1 g/kg s.c.; 2 hour period; versus control mice given water; dose differs per compound (Dose µmol/kg)
Description: Female CFLP mice, weighing approximately 25 g, were fasted for 24 hours prior to the study. The compounds under study were administered orally as an aqueous solution to each of 6 mice. 30 minutes later a blood sample (20 µl) was obtained from the tail for the analysis of blood glucose. Immediately after taking this blood sample, glucose (1 g/kg body weight) was administered subcutaneously to each mouse. 6 mice were given water as a control. Blood samples were then obtained from each mouse at 30 minute intervals for 120 minutes.
Compounds that produced a significant (p<0.05) reduction of blood glucose, compared with control mice given water, at any time interval, were considered active. The area under the blood glucose curve over the 2 hour period after the administration of the glucose was calculated for each compound and compared with the value for control animals.

Isolated Rat Atria = experiment: Effect of compounds on isolated rat atria (rate of right atrium, tension of left atrium); assay type: cell-based, Sprague-Dawley male rats; details: Krebs solution 32°C, up to 3x10-^5M; for effect on tension (electrically paced left atrium): isolated rat left atrium; for effect on rate (spontaneously beating right atrium): isolated rat right atrium
Description: Sprague-Dawley male rats (300-400 g) are killed and the right and left atria dissected out independently and mounted on a combined tissue holder/electrode. The tissues are then immersed in a glass bath containing Krebs solution maintained at 32 °C. The rate of the spontaneously beating right atrium (via an isometric tranducer and a ratemeter) and the tension of the electrically paced left atrium (via an isometric transducer) are recorded on an M19 chart recorder.
After an initial stabilization period, the tissues are exposed to a maximal concentration of isoprenaline (10^-6M). The tissues are then washed several times until rate and tension return to baseline level. A dose-response curve to the test compound is then carried out.

Female BALB/c mice = experiment: Anti-obesity activity: weight of parametrial fat pads after 3 days of compound in the diet; assay type: in vivo; details: compound in diet for 3 days, dose differs per compound (Dose mg/kg diet), mean of 9 values
Description: Female BALB/c mice were trained to feed on powdered oxoid for 1 week. They were then housed in threes and the compound under study was added to the diet for 3 days. Food was removed at 09.00h and the mice were killed at 11.00h. The parametrial fat pads were weighed as pairs. The result is a mean of 9 values.

COC(=O)c1ccc(C[C@@H](C)N(C[C@H](O)COc2ccccc2)C[C@H](O)COc2ccccc2)cc1 [Example 1, Methyl 4-[(R)-2-[bis-[(S)-2-hydroxy-3-phenoxypropyl]amino]propyl]benzoate]
Mean Energy Expenditure (0-3h) (Female CD1 mice): 132 percentage
Mean Energy Expenditure (0-21h) (Female CD1 mice): 107 percentage
Mean Energy Expenditure (0-3h) (Male Sprague-Dawley rats): 115 percentage
Mean Energy Expenditure (0-21h) (Male Sprague-Dawley rats): 114 percentage
% Reduction in Area under Blood Glucose Curve (Female CFLP mice): 28%
effect on tension (electrically paced left atrium) (Isolated Rat Atria): no effect
effect on rate (spontaneously beating right atrium) (Isolated Rat Atria): no effect

CC(Cc1ccc(OCC(N)=O)cc1)N(CC(O)COc1ccccc1)CC(O)c1cccc(Cl)c1.Cl (centres unmarked) [Example 8, 4-[2-[N-[2-(3-Chlorophenyl)-2-hydroxyethyl]-N-[2-hydroxy-3-phenoxypropyl]amino]propyl]phenoxyacetamide, hydrochloride]
Mean Energy Expenditure (0-3h) (Female CD1 mice): 158 percentage
Mean Energy Expenditure (0-21h) (Female CD1 mice): 122 percentage
% Reduction in Area under Blood Glucose Curve (Female CFLP mice): 50%
Percentage reduction in weight of parametrial fat pads compared with controls (Female BALB/c mice): 39 Percentage
effect on tension (electrically paced left atrium) (Isolated Rat Atria): no effect
effect on rate (spontaneously beating right atrium) (Isolated Rat Atria): no effect

COC(=O)c1ccc(CC(C)N(CC(O)COc2ccccc2)CC(O)c2ccc(O)c(CO)c2)cc1 (centres unmarked) [Example 9, Methyl 4-[2-[N-[2-hydroxy-2-[4-hydroxy-3-hydroxymethylphenyl]ethyl]-N-[2-hydroxy-3-phenoxypropyl]amino]propyl] benzoate]
Mean Energy Expenditure (0-3h) (Female CD1 mice): 111 percentage
Mean Energy Expenditure (0-21h) (Female CD1 mice): 106 percentage
% Reduction in Area under Blood Glucose Curve (Female CFLP mice): 34%
Percentage reduction in weight of parametrial fat pads compared with controls (Female BALB/c mice): 13 Percentage

COC(=O)COc1ccc(CC(C)N(CC(O)COc2ccc(CC(N)=O)cc2)CC(O)c2cccc(Cl)c2)cc1 (centres unmarked) [Example 11, Methyl 4-[2-[N-[2-(3-chlorophenyl)-2-hydroxyethyl]-N-[2-hydroxy-3-(4-carboxamidomethyl)phenoxypropyl]amino]propyl] phenoxyacetate, hydrochloride]
Mean Energy Expenditure (0-3h) (Female CD1 mice): 120 percentage
Mean Energy Expenditure (0-21h) (Female CD1 mice): 112 percentage
Mean Energy Expenditure (0-3h) (Male Sprague-Dawley rats): 136 percentage
Mean Energy Expenditure (0-21h) (Male Sprague-Dawley rats): 111 percentage
% Reduction in Area under Blood Glucose Curve (Female CFLP mice): 57%
Percentage reduction in weight of parametrial fat pads compared with controls (Female BALB/c mice): 16 Percentage

Br.C[C@H](CCc1ccc(C(N)=O)cc1)N(C[C@H](O)COc1ccccc1)C[C@H](O)COc1ccccc1.O.O [Example 13, 4-[(R)-3-[Bis-[(S)-2-hydroxy-3-phenoxypropyl]amino]butyl]-benzamide, hydrobromide, dihydrate]
Mean Energy Expenditure (0-3h) (Female CD1 mice): 103 percentage
Mean Energy Expenditure (0-21h) (Female CD1 mice): 105 percentage
Mean Energy Expenditure (0-3h) (Male Sprague-Dawley rats): 108 percentage
Mean Energy Expenditure (0-21h) (Male Sprague-Dawley rats): 106 percentage
% Reduction in Area under Blood Glucose Curve (Female CFLP mice): 15%

C[C@H](Cc1ccc(OCC(N)=O)cc1)N(C[C@H](O)COc1ccccc1)C[C@H](O)COc1ccccc1 [Example 14, 4-[(R)-2-[Bis-[(S)-2-hydroxy-3-phenoxypropyl]amino]propyl] phenoxyacetamide, hydrochloride]
Mean Energy Expenditure (0-3h) (Female CD1 mice): 140 percentage
Mean Energy Expenditure (0-21h) (Female CD1 mice): 112 percentage
Mean Energy Expenditure (0-3h) (Male Sprague-Dawley rats): 127 percentage
Mean Energy Expenditure (0-21h) (Male Sprague-Dawley rats): 117 percentage
% Reduction in Area under Blood Glucose Curve (Female CFLP mice): 20%
effect on tension (electrically paced left atrium) (Isolated Rat Atria): no effect
effect on rate (spontaneously beating right atrium) (Isolated Rat Atria): no effect

C[C@H](Cc1ccc(OCC(N)=O)cc1)N(C[C@H](O)COc1ccccc1)C[C@H](O)c1ccccc1 [Example 16, 4-[(R)-2-[N-[(R)-2-Hydroxy-2-phenethyl]-N-[(S)-2-hydroxy-3-phenoxypropyl]amino]propyl]phenoxyacetamide, hydrochloride, hemihydrate]
Mean Energy Expenditure (0-3h) (Female CD1 mice): 151 percentage
Mean Energy Expenditure (0-21h) (Female CD1 mice): 113 percentage
Mean Energy Expenditure (0-3h) (Male Sprague-Dawley rats): 141 percentage
Mean Energy Expenditure (0-21h) (Male Sprague-Dawley rats): 119 percentage
Percentage reduction in weight of parametrial fat pads compared with controls (Female BALB/c mice): 27 Percentage

CCOC(=O)COc1ccc(C[C@@H](C)N(C[C@H](O)COc2ccccc2)C[C@H](O)COc2ccccc2)cc1 [Example 17, Ethyl 4-[(R)-2-[bis-[(S)-2-hydroxy-3-phenoxypropyl]amino]propyl]phenoxyacetate, hydrochloride, hemihydrate]
Mean Energy Expenditure (0-3h) (Male Sprague-Dawley rats): 120 percentage
Mean Energy Expenditure (0-21h) (Male Sprague-Dawley rats): 105 percentage
Percentage reduction in weight of parametrial fat pads compared with controls (Female BALB/c mice): 37 Percentage

CCOC(=O)COc1ccc(C[C@@H](C)N(C[C@H](O)COc2ccccc2)C[C@H](O)c2cccc(Cl)c2)cc1 [Example 18, Ethyl 4-[(R)-2-[N-[(R)-2-(3-chlorophenyl)-2-hydroxyethyl]-N-[(S)-2-hydroxy-3-phenoxypropyl]amino]propyl]phenoxyacetate, hemifumarate]
Mean Energy Expenditure (0-3h) (Male Sprague-Dawley rats): 126 percentage
Mean Energy Expenditure (0-21h) (Male Sprague-Dawley rats): 109 percentage
% Reduction in Area under Blood Glucose Curve (Female CFLP mice): 45%
Percentage reduction in weight of parametrial fat pads compared with controls (Female BALB/c mice): 21 Percentage

C[C@H](Cc1ccc(OCCN)cc1)N(C[C@H](O)COc1ccccc1)C[C@H](O)c1ccccc1 [Example 20, 4-[(R)-2-[N-[(R)-2-Hydroxy-2-phenethyl]-N-[(S)-2-hydrpxy-3-phenoxypropyl]amino]propyl]phenoxyethylamine, dihydrochloride, hydrate]
Mean Energy Expenditure (0-3h) (Female CD1 mice): 146 percentage
Mean Energy Expenditure (0-21h) (Female CD1 mice): 120 percentage
Mean Energy Expenditure (0-3h) (Male Sprague-Dawley rats): 112 percentage
Mean Energy Expenditure (0-21h) (Male Sprague-Dawley rats): 110 percentage
% Reduction in Area under Blood Glucose Curve (Female CFLP mice): 40%
Percentage reduction in weight of parametrial fat pads compared with controls (Female BALB/c mice): 15 Percentage

CCOC(=O)COc1ccc(C[C@@H](C)N(C[C@@H](O)COc2ccccc2)C[C@H](O)c2ccccc2)cc1 [Example 23, Ethyl 4-[(R)-2-[N-[(R-2-hydroxy-2-phenethyl]-N-[(R)-2-hydroxy-3-phenoxypropyl]amino]propyl]phenoxyacetate, hydrochloride]
Mean Energy Expenditure (0-3h) (Male Sprague-Dawley rats): 129 percentage
Mean Energy Expenditure (0-21h) (Male Sprague-Dawley rats): 111 percentage
Percentage reduction in weight of parametrial fat pads compared with controls (Female BALB/c mice): 31 Percentage
